In PMC7782168, “Synthesis, telomerase inhibitory and anticancer activity of new 2-phenyl-4H-chromone derivatives containing 1,3,4-oxadiazole moiety” (Journal of Enzyme Inhibition and Medicinal Chemistry, 2020):

Legend:
[1] = target: T1, telomerase (Homo sapiens, UniProt O14746); experiment: Telomerase activity assay using MGC-803 cells extract; format: biochemical; conditions: mean ± SD
T1 construct: assayed for telomerase activity using MGC-803 cells extract; endogenous in cells; host or cells: MGC-803 cell extract

[2] = test system: A375 (human melanoma cell); experiment: In vitro anticancer (antiproliferative) MTT assay, A375; format: cell-based; conditions: Homo sapiens, A-375, mean ± SD of three experiments in triplicate
Experimental: (§1) A375, MDA-MB-231, MGC-803, SMMC-7721, SGC-7901 and L-02 cell lines were cultured in DMEM medium supplemented with 10% (V/V) heat-inactivated fetal bovine serum (FBS) (Biological Industries, Israel) along with 100 U/mL penicillin and […] streptomycin (Beyotime, China). Cells were grown in a humidified 5% CO2 atmosphere at 37 °C and maintained in a logarithmic growth phase for all experiments.
(§2) 2.5. Anticancer assay[23]

[3] = test system: MDA-MB-231 (human breast cancer cell); experiment: In vitro anticancer (antiproliferative) MTT assay, MDA-MB-231; format: cell-based; conditions: Homo sapiens, MDA-MB-231, mean ± SD of three experiments in triplicate
Experimental: as §1, §2

[4] = test system: MGC-803 (human gastric cancer cell); experiment: In vitro anticancer (antiproliferative) MTT assay, MGC-803; format: cell-based; conditions: Homo sapiens, MGC-803, mean ± SD of three experiments in triplicate
Experimental: as §1, §2

[5] = test system: SMMC-7721 (human hepatoma cell); experiment: In vitro anticancer (antiproliferative) MTT assay, SMMC-7721; format: cell-based; conditions: Homo sapiens, SMMC-7721, mean ± SD of three experiments in triplicate
Experimental: as §1, §2

[6] = test system: SGC-7901 (human gastric cancer cell); experiment: In vitro anticancer (antiproliferative) MTT assay, SGC-7901; format: cell-based; conditions: Homo sapiens, SGC-7901, mean ± SD of three experiments in triplicate
Experimental: as §1, §2

[7] = test system: human normal liver cell (L-02); experiment: Toxicity against human normal liver cells, MTT assay; format: cell-based; conditions: triplicate
Experimental: as §1, §2
In order to determine the selective cytotoxicity of selected compounds, we subsequently conducted a proliferative inhibition assay with human normal liver cell (L-02). […] Therefore, in combination with the above points, it is quite meaningful to further explore the mechanisms of this compound.

[8] = test system: MGC-803 cells; experiment: Cell cycle analysis by flow cytometry (PI staining); format: cell-based, human; conditions: 48 h
Experimental: For cell cycle analysis, cell cycle kit (Beyotime, China) was performed. MGC-803 cells were treated with compound A33 at different concentrations for 48 h. Untreated and treated cells were harvested, and then MGC-803 cells were washed three times using cold PBS. And then cells were fixed in 70% ethanol at −20 °C for 1 h. After fixation, cells were washed with cold PBS and stained with 0.5 ml of propidium iodide (PI) staining buffer, which contain […] RNase A and 50 µg/mL PI, at 37 °C for 30 min in the dark. Analyses were conducted on FACSVerse Flow Cytometer (Becton Dickinson). The experiments were repeated three times.
To verify whether cell cycle arrest leads to decrease cells proliferation, we used flow cytometric analysis to measure the effect of this compound on induction of cell cycle. […] In a word, this compound can induce cell cycle arrest at G2/M phase in a concentration-dependent manner, delaying cell cycle progression, thereby resulting in cell proliferation inhibition.
Figure 3. Cell cycle distribution induced by compound A33 was measured in MGC-803 cells. Cells were treated with compound A33 of 3, 6 and 9 μM for 48 h. Samples were analysed by flow cytometry and received results were analysed by modifit software. TEXT PRINTED IN THE PICTURE: A33: Dip G1:39.11% (3μM); Dip G2:29.46% (3μM); Dip S: 31.44% (3μM); Dip G1:35.72% (6μM); Dip G2:50.46% (6μM); Dip S: 13.82% (6μM); Dip G1:32.62% (9μM); Dip G2:55.13% (9μM); Dip S: 12.25% (9μM)

[9] = test system: MGC-803 cells; experiment: Apoptosis assay, Annexin V-FITC/PI flow cytometry; format: cell-based, human; conditions: 48 h, untreated 4.27%
Experimental: For cell apoptosis analysis, we employed annexin V-FITC/PI apoptosis detection kit (BestBio, China). MGC-803 cells in logarithmic growth phase were treated with compound A33 at different concentrations for 48 h. Cells were collected in cold PBS by centrifugation for 5 min at 1000 g. And then cells were re-suspended at a buffer (1 × 10^6 cells/mL), stained with FITC-labeled annexin V and PI for 20 min in the dark and immediately analysed on FACSVerse Flow Cytometer (Becton Dickinson).
To determine whether compound A33 meditated inhibition of proliferation was related with apoptosis, MGC-803 cells was selected for examination. The Annexin V-FITC/PI apoptosis detection kit was used in cell apoptosis analysis. […] This is consistent with the fact that telomerase inhibitors can induce apoptosis and thus inhibit the unlimited proliferation of tumour cells.
Figure 4. Percentage of apoptotic cells was determined in MGC-803 cells by Annexin-V FITC/PI staining. MGC-803 cells were treated with increasing concentrations of compound A33 for 48 h and stained with Annexin-V FITC/PI. Apoptotic ratio increased, accompanied with the increase of concentration. TEXT PRINTED IN THE PICTURE: A33: Q1-UL(1.08%) (3μM); Q1-UR(9.20%) (3μM); Q1-LL(87.53%) (3μM); Q1-LR(2.19%) (3μM); Q1-UL(4.60%) (6μM); Q1-UR(29.31%) (6μM); Q1-LL(38.09%) (6μM); Q1-LR(28.00%) (6μM); Q1-UL(4.54%) (9μM); Q1-UR(49.18%) (9μM); Q1-LL(8.50%) (9μM); Q1-LR(37.78%) (9μM) DOUBTS OF THE COPYIST ABOUT THIS PICTURE: A33 3μM, Q1-UR: 9.20% partly covered by plot points, first digit 9 or 8 / A33 6μM, Q1-UR: 29.31% partly covered by plot points, digits not fully certain / A33 9μM, Q1-UR: 49.18% partly covered by plot points, digits not fully certain

[10] = test system: dyskerin; experiment: Western blotting of dyskerin expression in MGC-803 cells; format: cell-based, human; conditions: MGC-803 cells, 3, 6, 9 µM, 48 h
Experimental: (§3) Human MGC-803 cells were lysed with RIPA lysis buffer (Beyotime, China). Whole extracts were prepared, and protein concentration was detected using a BCA protein assay kit (Beyotime, China). The protein samples were separated by SDS-PAGE and blotted onto a PVDF membrane (Millipore Corp, Billerica, MA). After blockade of non-specific protein binding, […] blots were incubated at 4 °C for 8 h with primary antibodies. After extensive washing in TBS/Tween-20, the membranes were incubated at room temperature for 1 h with secondary antibodies. After washed in TBS/Tween-20, the blots were processed with distilled water for detection of antigen using the enhanced chemiluminescence system. Proteins were visualised with ECL-chemiluminescent kit (ECL-plus, Thermo Scientific).
(§4) Dyskerin-NOP10-NHP2, trimer proteins are the core components of telomerase, playing a key role in the stabilisation, activation and assembly of telomerase, and the loss of dyskerin function can influence telomerase activity. Dyskerin over-expression associated with a variety of tumour types has been reported. […] Meanwhile, NHP2[39] and NOP10[40], as the important components of dyskerin-NHP2-NOP10 trimer, had also been assessed together. […]
(§5) Figure 5. […] The proteins expression of Dyskerin, NOP10 and NHP2 were analysed by Western blotting. The results are expressed as relative expression against control expression. n = 3. […]

[11] = test system: NOP10; experiment: Western blotting of NOP10 expression in MGC-803 cells; format: cell-based, human; conditions: MGC-803 cells, 3, 6, 9 µM, 48 h
Experimental: as §3, §4, §5

[12] = test system: NHP2; experiment: Western blotting of NHP2 expression in MGC-803 cells; format: cell-based, human; conditions: MGC-803 cells, 3, 6, 9 µM, 48 h
Experimental: as §3, §4, §5

T1 sequence (O14746 whole entry): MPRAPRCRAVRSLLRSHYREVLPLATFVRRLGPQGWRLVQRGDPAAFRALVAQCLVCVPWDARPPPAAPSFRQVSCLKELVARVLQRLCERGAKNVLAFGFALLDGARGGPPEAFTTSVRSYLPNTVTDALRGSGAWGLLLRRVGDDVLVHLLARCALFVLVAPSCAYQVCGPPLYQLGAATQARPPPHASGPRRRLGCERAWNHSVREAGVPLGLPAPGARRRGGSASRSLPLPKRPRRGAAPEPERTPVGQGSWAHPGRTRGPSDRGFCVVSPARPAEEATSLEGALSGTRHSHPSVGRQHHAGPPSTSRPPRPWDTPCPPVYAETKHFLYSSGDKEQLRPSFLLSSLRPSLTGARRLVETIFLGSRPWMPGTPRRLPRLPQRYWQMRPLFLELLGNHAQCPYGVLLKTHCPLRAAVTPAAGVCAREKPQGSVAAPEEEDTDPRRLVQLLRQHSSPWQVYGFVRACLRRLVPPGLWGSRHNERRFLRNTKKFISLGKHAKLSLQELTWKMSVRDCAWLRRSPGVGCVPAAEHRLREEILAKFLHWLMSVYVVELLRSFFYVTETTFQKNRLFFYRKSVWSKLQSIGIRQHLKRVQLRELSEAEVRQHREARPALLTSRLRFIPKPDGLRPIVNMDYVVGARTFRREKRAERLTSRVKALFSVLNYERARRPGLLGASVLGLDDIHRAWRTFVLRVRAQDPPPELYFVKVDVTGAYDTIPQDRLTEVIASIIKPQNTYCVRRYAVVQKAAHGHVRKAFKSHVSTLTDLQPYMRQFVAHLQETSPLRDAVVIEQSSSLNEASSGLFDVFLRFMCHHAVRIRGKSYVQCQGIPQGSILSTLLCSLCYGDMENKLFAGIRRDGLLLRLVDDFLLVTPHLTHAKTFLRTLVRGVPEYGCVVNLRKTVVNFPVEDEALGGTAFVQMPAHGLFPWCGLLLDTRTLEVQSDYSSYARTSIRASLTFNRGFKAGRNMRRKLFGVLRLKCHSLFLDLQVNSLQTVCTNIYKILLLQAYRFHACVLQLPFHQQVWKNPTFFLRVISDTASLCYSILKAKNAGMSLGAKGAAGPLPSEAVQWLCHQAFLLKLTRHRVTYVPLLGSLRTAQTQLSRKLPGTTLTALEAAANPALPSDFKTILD
T1 sequence (O60832 2-514 partner limits assumed): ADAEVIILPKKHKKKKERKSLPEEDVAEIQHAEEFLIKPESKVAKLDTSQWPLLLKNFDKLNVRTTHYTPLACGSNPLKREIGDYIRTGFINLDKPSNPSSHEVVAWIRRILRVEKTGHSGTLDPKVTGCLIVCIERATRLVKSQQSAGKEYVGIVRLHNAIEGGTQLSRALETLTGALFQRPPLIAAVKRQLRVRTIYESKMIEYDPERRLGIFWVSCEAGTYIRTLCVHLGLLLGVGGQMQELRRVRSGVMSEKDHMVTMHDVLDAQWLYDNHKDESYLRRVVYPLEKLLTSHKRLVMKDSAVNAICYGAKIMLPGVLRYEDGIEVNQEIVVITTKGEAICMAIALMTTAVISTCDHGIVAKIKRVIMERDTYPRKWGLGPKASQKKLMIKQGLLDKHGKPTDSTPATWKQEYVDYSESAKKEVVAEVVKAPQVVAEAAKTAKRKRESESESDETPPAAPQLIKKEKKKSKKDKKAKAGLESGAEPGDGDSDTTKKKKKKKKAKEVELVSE
T1 sequence (Q9NPE3 whole entry partner): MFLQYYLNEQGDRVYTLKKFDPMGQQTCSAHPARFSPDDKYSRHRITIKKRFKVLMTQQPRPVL
T1 sequence (Q9NX24 whole entry partner): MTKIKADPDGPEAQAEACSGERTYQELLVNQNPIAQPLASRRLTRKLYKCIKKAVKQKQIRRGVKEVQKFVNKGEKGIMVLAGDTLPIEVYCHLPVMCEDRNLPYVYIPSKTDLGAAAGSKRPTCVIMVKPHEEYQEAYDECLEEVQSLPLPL
T1 sequence (Q9NY12 whole entry partner): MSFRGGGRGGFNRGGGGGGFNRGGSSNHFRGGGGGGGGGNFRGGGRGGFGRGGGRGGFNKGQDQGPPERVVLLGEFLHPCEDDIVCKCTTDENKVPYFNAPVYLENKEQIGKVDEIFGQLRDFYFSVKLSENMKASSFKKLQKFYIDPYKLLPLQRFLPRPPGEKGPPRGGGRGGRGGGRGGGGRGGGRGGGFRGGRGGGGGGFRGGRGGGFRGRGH

IC50 [1] | IC50 [2] | IC50 [3] | IC50 [4] | IC50 [5] | IC50 [6] | melting point | Structure (SMILES) | IC50 [7] | other results
0.51 ± 0.1 µM | > 100 µM | > 100 µM | > 100 µM | > 100 µM | > 100 µM | 151 to 153 °C | COc1cc(OC)c2c(=O)c(OCC(=O)Nc3nnc(-c4ccc(OC)c(OC)c4)o3)c(-c3ccc(OC)c(OC)c3)oc2c1 [B27, N-(5–(3,4-dimethoxyphenyl)-1,3,4-oxadiazol-2-yl)-2–(2-(3,4-dimethoxyphenyl)-5,7-dimethoxy-4-oxo-4H-chromen-3-yloxy)acetamide] | 1670 ± 250 µM | 
0.97 ± 0.2 µM | > 100 µM | > 100 µM | > 100 µM | > 100 µM | > 100 µM | 226 to 228 °C | COc1cc(OC)c2c(=O)c(OCC(=O)Nc3nnc(/C=C/c4ccccc4)o3)c(-c3ccc(OC)c(OC)c3)oc2c1 [B33, (E)-2–(2-(3,4-dimethoxyphenyl)-5,7-dimethoxy-4-oxo-4H-chromen-3-yloxy)-N-(5-styryl-1,3,4-oxadiazol-2-yl)acetamide] | 1010 ± 140 µM | 

More lines, now with the values behind:

Structure (SMILES) | IC50 [1] | IC50 [2] | IC50 [3] | IC50 [4] | IC50 [5] | IC50 [6] | melting point | IC50 [7] | other results
COc1cc(OC)c2c(=O)c(OCC(=O)Nc3nnc(-c4ccc(C(F)(F)F)cc4)o3)c(-c3cc(OC)c(OC)c(OC)c3)oc2c1 [A16, 2–(5,7-dimethoxy-4-oxo-2–(3,4,5-trimethoxyphenyl)-4H-chromen-3-yloxy)-N-(5–(4-(trifluoromethyl)phenyl)-1,3,4-oxadiazol-2-yl)acetamide] | 0.62 ± 0.11 µM | 10.1 ± 0.52 µM | > 100 µM | > 100 µM | > 100 µM | > 100 µM | 231 to 233 °C | 900 ± 110 µM | 
COc1cc(OC)c2c(=O)c(OCC(=O)Nc3nnc(-c4cccc(OC(F)(F)F)c4)o3)c(-c3cc(OC)c(OC)c(OC)c3)oc2c1 [A20, 2–(5,7-dimethoxy-4-oxo-2–(3,4,5-trimethoxyphenyl)-4H-chromen-3-yloxy)-N-(5–(3-(trifluoromethoxy)phenyl)-1,3,4-oxadiazol-2-yl)acetamide] | 0.92 ± 0.17 µM | 8.92 ± 0.69 µM | 19.5 ± 1 µM | 6.29 ± 0.36 µM | > 100 µM | 10.2 ± 0.65 µM | 221 to 223 °C | 620 ± 240 µM | 
COc1cc(OC)c2c(=O)c(OCC(=O)Nc3nnc(-c4ccc(F)cc4)o3)c(-c3cc(OC)c(OC)c(OC)c3)oc2c1 [A2, 2–(5,7-dimethoxy-4-oxo-2–(3,4,5-trimethoxyphenyl)-4H-chromen-3-yloxy)-N-(5–(4-fluorophenyl)-1,3,4-oxadiazol-2-yl)acetamide] | 0.77 ± 0.13 µM | 11 ± 1.54 µM | 25.1 ± 2.1 µM | 17.3 ± 2.21 µM | 8.07 ± 1.3 µM | 56.9 ± 1.24 µM | 221 to 223 °C | 1370 ± 430 µM | 
COc1cc(OC)c2c(=O)c(OCC(=O)Nc3nnc(-c4ccc(Cl)cc4)o3)c(-c3cc(OC)c(OC)c(OC)c3)oc2c1 [A5, N-(5–(4-chlorophenyl)-1,3,4-oxadiazol-2-yl)-2–(5,7-dimethoxy-4-oxo-2–(3,4,5-trimethoxyphenyl)-4H-chromen-3-yloxy)acetamide] | 0.81 ± 0.13 µM | 20.1 ± 0.62 µM | > 100 µM | 15.2 ± 0.41 µM | > 100 µM | 25.4 ± 0.59 µM | 227 to 229 °C | 1990 ± 130 µM | 
COc1cc(OC)c2c(=O)c(OCC(=O)Nc3nnc(/C=C/c4ccccc4)o3)c(-c3cc(OC)c(OC)c(OC)c3)oc2c1 [A33, (E)-2–(5,7-dimethoxy-4-oxo-2–(3,4,5-trimethoxyphenyl)-4H-chromen-3-yloxy)-N-(5-styryl-1,3,4-oxadiazol-2-yl)acetamide] | 0.44 ± 0.09 µM | 11.2 ± 0.69 µM | 9.89 ± 0.44 µM | 8.76 ± 0.25 µM | 9.67 ± 0.82 µM | 10 ± 0.51 µM |  | 2210 ± 170 µM | G0/G1 phase distribution (Dip G1) ([8]; 3 μM): 39.11%; G2/M phase distribution (Dip G2) ([8]; 3 μM): 29.46%; S phase distribution (Dip S) ([8]; 3 μM): 31.44%; G0/G1 phase distribution (Dip G1) ([8]; 6 μM): 35.72%; G2/M phase distribution (Dip G2) ([8]; 6 μM): 50.46%; S phase distribution (Dip S) ([8]; 6 μM): 13.82%; G0/G1 phase distribution (Dip G1) ([8]; 9 μM): 32.62%; G2/M phase distribution (Dip G2) ([8]; 9 μM): 55.13%; S phase distribution (Dip S) ([8]; 9 μM): 12.25%; Increase of the G2/M phase distribution versus untreated ([8]; increasing concentrations (3, 6, 9 µM), from 9.76 to 55.13%): 45.37%; Percentage of AnnexinV-FITC binding MGC-803 cells ([9]; 3 μM (first of increasing concentrations, Figure 4)): 11.39%; Percentage of AnnexinV-FITC binding MGC-803 cells ([9]; 6 μM (second of increasing concentrations, Figure 4)): 57.31%; Percentage of AnnexinV-FITC binding MGC-803 cells ([9]; 9 μM (third of increasing concentrations, Figure 4)): 86.96%; Expression level of dyskerin protein [10]: reduced in a concentration-dependent manner; Expression of NOP10 [11]: lower level than control group; Expression of NHP2 [12]: lower level than control group
